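Cultured in 96-well plates, cells were exposed to test compound for 48 hours across five concentrations. TGI is the concentration that stops growth completely.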
Experiments:
Experiment in all cases: NCI tumour cell line growth inhibition, 48 h
MALME-3M melanoma = system: MALME-3M melanoma
XF 498 CNS = system: XF 498 CNS
A549 NSCLC = system: A549 NSCLC
HL-60(TB) leukemia = system: HL-60(TB) leukemia
HCC-2998 colon = system: HCC-2998 colon
RPMI-8226 leukemia = system: RPMI-8226 leukemia
DLD-1 colon = system: DLD-1 colon
M19-MEL melanoma = system: M19-MEL melanoma
DMS 273 small cell lung = system: DMS 273 small cell lung
HT29 colon = system: HT29 colon
RXF-631 renal = system: RXF-631 renal
SN12C renal = system: SN12C renal
NCI-H23 lung = system: NCI-H23 lung
OVCAR-8 ovarian = system: OVCAR-8 ovarian
ACHN renal = system: ACHN renal
OVCAR-5 ovarian = system: OVCAR-5 ovarian
SNB-75 CNS = system: SNB-75 CNS
KM20L2 colon = system: KM20L2 colon
CCRF-CEM leukemia = system: CCRF-CEM leukemia
UO-31 renal = system: UO-31 renal
OVCAR-4 ovarian = system: OVCAR-4 ovarian
HOP-92 NSCLC = system: HOP-92 NSCLC
TK-10 renal = system: TK-10 renal
SR leukemia = system: SR leukemia
SF-295 CNS = system: SF-295 CNS
U251 CNS = system: U251 CNS
SK-MEL-2 melanoma = system: SK-MEL-2 melanoma
UACC-257 melanoma = system: UACC-257 melanoma
KM12 colon = system: KM12 colon
M14 melanoma = system: M14 melanoma
COLO 205 colon = system: COLO 205 colon
HCT-116 colon = system: HCT-116 colon
DMS 114 small cell lung = system: DMS 114 small cell lung
EKVX NSCLC = system: EKVX NSCLC
NCI-H226 lung = system: NCI-H226 lung
SNB-78 CNS = system: SNB-78 CNS
SK-MEL-5 melanoma = system: SK-MEL-5 melanoma
CAKI-1 renal = system: CAKI-1 renal
SK-MEL-28 melanoma = system: SK-MEL-28 melanoma
SW-620 colon = system: SW-620 colon
SF-539 CNS = system: SF-539 CNS
NCI-H460 lung = system: NCI-H460 lung
IGROV1 ovarian = system: IGROV1 ovarian
OVCAR-3 ovarian = system: OVCAR-3 ovarian
A498 renal = system: A498 renal
MOLT-4 leukemia = system: MOLT-4 leukemia
786-0 renal = system: 786-0 renal
SK-OV-3 ovarian = system: SK-OV-3 ovarian
HOP-62 NSCLC = system: HOP-62 NSCLC
LOX IMVI melanoma = system: LOX IMVI melanoma
HCT-15 colon = system: HCT-15 colon
HOP-18 NSCLC = system: HOP-18 NSCLC
UACC-62 melanoma = system: UACC-62 melanoma
SNB-19 CNS = system: SNB-19 CNS
LXFL 529 NSCLC = system: LXFL 529 NSCLC
K-562 leukemia = system: K-562 leukemia
SF-268 CNS = system: SF-268 CNS
RXF 393 renal = system: RXF 393 renal
NCI-H522 lung = system: NCI-H522 lung

**Q.** With `CCOC(=O)NC(=O)c1c[nH]c(=O)[nH]c1=O` as the compound, how does the TGI (MALME-3M melanoma) read?
**A.** > 100 µM

**Q.** What about the TGI (XF 498 CNS) of the same compound?
**A.** > 100 µM

**Q.** And the TGI (A549 NSCLC)?
**A.** > 100 µM

**Q.** And the TGI (HL-60(TB) leukemia)?
**A.** > 100 µM

**Q.** What about the TGI (HCC-2998 colon) of the same compound?
**A.** > 100 µM

**Q.** And the TGI (RPMI-8226 leukemia)?
**A.** > 100 µM

**Q.** What about the TGI (DLD-1 colon) of the same compound?
**A.** > 100 µM

**Q.** And the TGI (M19-MEL melanoma)?
**A.** > 100 µM

**Q.** And the TGI (DMS 273 small cell lung)?
**A.** > 100 µM

**Q.** What about the TGI (HT29 colon) of the same compound?
**A.** > 100 µM

**Q.** And the TGI (RXF-631 renal)?
**A.** > 100 µM

**Q.** And the TGI (SN12C renal)?
**A.** > 100 µM

**Q.** And the TGI (NCI-H23 lung)?
**A.** > 100 µM

**Q.** What about the TGI (OVCAR-8 ovarian) of the same compound?
**A.** > 100 µM

**Q.** What about the TGI (ACHN renal) of the same compound?
**A.** > 100 µM

**Q.** What about the TGI (OVCAR-5 ovarian) of the same compound?
**A.** > 100 µM

**Q.** And the TGI (SNB-75 CNS)?
**A.** > 100 µM

**Q.** What about the TGI (KM20L2 colon) of the same compound?
**A.** > 100 µM

**Q.** What about the TGI (CCRF-CEM leukemia) of the same compound?
**A.** > 100 µM

**Q.** And the TGI (UO-31 renal)?
**A.** > 100 µM

**Q.** What about the TGI (OVCAR-4 ovarian) of the same compound?
**A.** > 100 µM

**Q.** And the TGI (HOP-92 NSCLC)?
**A.** > 100 µM

**Q.** What about the TGI (TK-10 renal) of the same compound?
**A.** > 100 µM

**Q.** And the TGI (SR leukemia)?
**A.** > 100 µM

**Q.** And the TGI (SF-295 CNS)?
**A.** > 100 µM

**Q.** What about the TGI (U251 CNS) of the same compound?
**A.** > 100 µM

**Q.** And the TGI (SK-MEL-2 melanoma)?
**A.** > 100 µM

**Q.** What about the TGI (UACC-257 melanoma) of the same compound?
**A.** > 100 µM

**Q.** And the TGI (KM12 colon)?
**A.** > 100 µM

**Q.** What about the TGI (M14 melanoma) of the same compound?
**A.** > 100 µM

**Q.** And the TGI (COLO 205 colon)?
**A.** > 100 µM

**Q.** And the TGI (HCT-116 colon)?
**A.** > 100 µM

**Q.** And the TGI (DMS 114 small cell lung)?
**A.** > 100 µM

**Q.** What about the TGI (EKVX NSCLC) of the same compound?
**A.** > 100 µM

**Q.** And the TGI (NCI-H226 lung)?
**A.** > 100 µM

**Q.** What about the TGI (SNB-78 CNS) of the same compound?
**A.** > 100 µM

**Q.** And the TGI (SK-MEL-5 melanoma)?
**A.** > 100 µM

**Q.** And the TGI (CAKI-1 renal)?
**A.** > 100 µM

**Q.** And the TGI (SK-MEL-28 melanoma)?
**A.** > 100 µM

**Q.** And the TGI (SW-620 colon)?
**A.** > 100 µM

**Q.** And the TGI (SF-539 CNS)?
**A.** > 100 µM

**Q.** What about the TGI (NCI-H460 lung) of the same compound?
**A.** > 100 µM

**Q.** And the TGI (IGROV1 ovarian)?
**A.** > 100 µM

**Q.** What about the TGI (OVCAR-3 ovarian) of the same compound?
**A.** > 100 µM

**Q.** What about the TGI (A498 renal) of the same compound?
**A.** > 100 µM

**Q.** What about the TGI (MOLT-4 leukemia) of the same compound?
**A.** > 100 µM

**Q.** What about the TGI (786-0 renal) of the same compound?
**A.** > 100 µM

**Q.** What about the TGI (SK-OV-3 ovarian) of the same compound?
**A.** > 100 µM

**Q.** What about the TGI (HOP-62 NSCLC) of the same compound?
**A.** > 100 µM

**Q.** And the TGI (LOX IMVI melanoma)?
**A.** > 100 µM

**Q.** What about the TGI (HCT-15 colon) of the same compound?
**A.** > 100 µM

**Q.** What about the TGI (HOP-18 NSCLC) of the same compound?
**A.** > 100 µM

**Q.** What about the TGI (UACC-62 melanoma) of the same compound?
**A.** > 100 µM

**Q.** And the TGI (SNB-19 CNS)?
**A.** > 100 µM

**Q.** What about the TGI (LXFL 529 NSCLC) of the same compound?
**A.** > 100 µM

**Q.** What about the TGI (K-562 leukemia) of the same compound?
**A.** > 100 µM

**Q.** Which results are given for `Cc1ccc(S(=O)OC23CC4CC(CC(C4)C2)C3)cc1` (stereo not drawn)?
**A.** TGI (MALME-3M melanoma): > 100 µM; TGI (XF 498 CNS): > 100 µM; TGI (A549 NSCLC): > 100 µM; TGI (HL-60(TB) leukemia): 44.3 µM; TGI (HCC-2998 colon): > 100 µM; TGI (RPMI-8226 leukemia): > 100 µM; TGI (DLD-1 colon): > 100 µM; TGI (M19-MEL melanoma): > 100 µM; TGI (DMS 273 small cell lung): > 100 µM; TGI (HT29 colon): > 100 µM; TGI (RXF-631 renal): > 100 µM; TGI (SN12C renal): > 100 µM; TGI (NCI-H23 lung): > 100 µM; TGI (OVCAR-8 ovarian): > 100 µM; TGI (ACHN renal): > 100 µM; TGI (OVCAR-5 ovarian): > 100 µM; TGI (SNB-75 CNS): > 100 µM; TGI (KM20L2 colon): > 100 µM; TGI (UO-31 renal): > 100 µM; TGI (OVCAR-4 ovarian): > 100 µM; TGI (HOP-92 NSCLC): > 100 µM; TGI (TK-10 renal): > 100 µM; TGI (SF-268 CNS): > 100 µM; TGI (SR leukemia): > 100 µM; TGI (SF-295 CNS): > 100 µM; TGI (U251 CNS): > 100 µM; TGI (UACC-257 melanoma): > 100 µM; TGI (KM12 colon): > 100 µM; TGI (RXF 393 renal): > 100 µM; TGI (M14 melanoma): > 100 µM; TGI (COLO 205 colon): > 100 µM; TGI (HCT-116 colon): > 100 µM; TGI (DMS 114 small cell lung): > 100 µM; TGI (EKVX NSCLC): > 100 µM; TGI (NCI-H226 lung): > 100 µM; TGI (SNB-78 CNS): > 100 µM; TGI (SK-MEL-5 melanoma): > 100 µM; TGI (NCI-H522 lung): > 100 µM; TGI (CAKI-1 renal): > 100 µM; TGI (SK-MEL-28 melanoma): > 100 µM; TGI (SW-620 colon): > 100 µM; TGI (SF-539 CNS): > 100 µM; TGI (NCI-H460 lung): > 100 µM; TGI (IGROV1 ovarian): 85.7 µM; TGI (OVCAR-3 ovarian): > 100 µM; TGI (A498 renal): > 100 µM; TGI (MOLT-4 leukemia): > 100 µM; TGI (786-0 renal): > 100 µM; TGI (SK-OV-3 ovarian): > 100 µM; TGI (HOP-62 NSCLC): > 100 µM; TGI (LOX IMVI melanoma): > 100 µM; TGI (HCT-15 colon): > 100 µM; TGI (HOP-18 NSCLC): > 100 µM; TGI (UACC-62 melanoma): > 100 µM; TGI (SNB-19 CNS): > 100 µM; TGI (LXFL 529 NSCLC): > 100 µM; TGI (K-562 leukemia): > 100 µM
